We go through 2 molecules from patent US20220332758A1, “PEPTIDE-BASED COMPOSITIONS AND METHODS FOR TREATING ALZHEIMER'S DISEASE” (Board of Regents, The Universityof Texas System, priority 2019, published 2022).

Molecules are shown by their SMILES.

In assay [1] the target is T1, proteasome activity in W^1118 flies (Drosophila melanogaster, UniProt P40301+Q9XZJ4).
T1 construct: from tissue
As to the kind of experiment: Proteasome activity in flies fed the compounds. The class given is in vivo. The note with it: fed for 10 days. As for the experimental part:
Fly Lines and Strain Maintenance. UAS-ProsBeta5 (Staudt, N. et al. PLoS Genet 1, e55, doi:10.1371/journal.pgen.0010055 (2005)) and Elav-GS-GAL4; UAS-hAPP; UAS-hBACE1 (56756) stocks were obtained from the Bloomington Drosophila Stock Center (NIH P40OD018537). The lines were maintained on agar-cornmeal-dextrose-yeast growth media (Ren, C., Finkel, S. E. & Tower, J. Exp Gerontol 44, 228-235, doi:10.1016/j.exger.2008.10.002 (2009)) in a humidified 24° C. incubator with 12:12-hour light:dark cycle. The crosses were set up with female virgins of the respective GAL4 driver line and male UAS-ProsBeta5 or W^1118 flies. Progeny were collected within 48 hours of eclosion and allowed to mate on 10% sugar/yeast (SY10) media (Skorupa, D. A., et al. Aging Cell 7, 478-490, doi:10.1111/j.1474-9726.2008.00400.x (2008)) for another 48 hours. After this period, females were separated and sorted into sets of 25 flies per vial containing SY10 media supplemented either with 400 μM mifepristone (RU486) or ethanol vehicle, mixed directly into the food. 8 μM Blue Dye #1 was added to food containing RU486 for the purpose of identification. Carbon dioxide was used to briefly anesthetize flies for sorting. Flies were moved to vials of fresh media every two to three days.
Plate-based proteasome activity assay. […]

Assay [2] concerns the target T2, proteasome ChT-L activity in SK-N-SH (ATCC HTB-11) cells (Homo sapiens, UniProt P25787+P60900).
T2 construct: host or cells: SK-N-SH human neuroblastoma cells
As to the kind of experiment: ChT-L proteasome activity in lysates of SK-N-SH cells treated with TAT peptides. The following applies: for proteasome ChT-L activity in lysates from treated cells vs control lysates: 1 μM, 24 h. The class given is cell-based.
Procedure: Cell Culture. Human SK-N-SH neuroblastoma cell line (ATCC® HTB-11™ American Type Culture Collection; Manassas, Va.) were cultured according to ATCC specifications (EMEM, 10% heat-inactivated FBS) The cells at passage 2-4 were treated with 1 μM TAT peptides or the DMSO vehicle diluted with the medium 1: 1000, for 24 h. The content of live cells was determined by the Trypan Blue-exclusion assay. The cells were harvested, washed twice in PBS, resuspended in dilution buffer (as described herein) and stored in −80° C. To prepare lysates, the thawed preparations were vortexed with glass beads and centrifuged for 5 min 5,000×g (4° C.). The supernatant was centrifuged for 20 min 14,000×g (4° C.). The resulting supernatant—“crude lysate” was diluted to 1 mg/mL of total protein with dilution buffer. 1 μg of lysate per assay (reaction buffer: 50 mM Tris/HCl pH 8, 0.1 mM MgCl2, 0.2 mM ATP, 0.1 mM dithiothreitol, 50 μM Suc-LLVY-AMC (SEQ ID NO: 14)) was used for determination of ChT-L activity in a 96-well format, as above.

Assay [3] has as its system elav-GS-Gal4>UAS-APP, UAS-Bace1 flies. As to the kind of experiment: Spontaneous activity in fly AD model. Type of assay: in vivo, Drosophila melanogaster. The note with it: 1 μM in food. As for the experimental part:
Spontaneous activity and circadian rhythm. Spontaneous activity was monitored using a Trikinetic activity monitor, in which vials containing 20-25 flies were secured and activity recorded in a humidified 24° C. incubator with 12:12-hour light:dark cycles as described herein. Flies were allowed to acclimate for 8 hours prior to data collection. Activity was averaged for each twelve-hour cycle and normalized per fly.

T1 sequence (Q9XZJ4 whole entry): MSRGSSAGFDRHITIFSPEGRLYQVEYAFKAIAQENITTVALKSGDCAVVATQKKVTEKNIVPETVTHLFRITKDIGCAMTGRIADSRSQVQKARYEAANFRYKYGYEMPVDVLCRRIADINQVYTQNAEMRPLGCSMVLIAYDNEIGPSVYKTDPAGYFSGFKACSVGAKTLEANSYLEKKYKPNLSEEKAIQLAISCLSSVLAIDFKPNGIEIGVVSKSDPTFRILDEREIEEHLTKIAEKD
T1 sequence (P40301 whole entry): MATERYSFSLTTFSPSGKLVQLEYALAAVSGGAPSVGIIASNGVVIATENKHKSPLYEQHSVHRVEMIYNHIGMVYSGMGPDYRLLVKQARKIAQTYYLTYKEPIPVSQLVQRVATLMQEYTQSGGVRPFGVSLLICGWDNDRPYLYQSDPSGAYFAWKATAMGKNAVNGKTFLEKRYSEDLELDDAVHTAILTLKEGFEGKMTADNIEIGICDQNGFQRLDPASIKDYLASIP

Regarding `N=C(N)NCCCC(NC(=O)CN)C(=O)NC(CCCCN)C(=O)NC(CCCCN)C(=O)NC(CCCNC(=N)N)C(=O)NC(CCCNC(=N)N)C(=O)NC(CCC(N)=O)C(=O)N1Cc2ccccc2C[C@H]1C(=O)N1C(C(=O)NC(CCCNC(N)N)C(=O)N2CCCC2C(=O)NC(CO)C(=O)O)CC2CCCCC21` (stereo partly shown) [(5), GRKKRRQ-TOD-RPS], the “proteasome activity in flies” value in assay [1] is recorded as “enhance proteasome activity when fed to flies”. For the same molecule, in assay [2], the “proteasome ChT-L activity in lysates from treated cells vs control lysates” value is “significantly higher than activity in control lysates”. Besides, the “dose and time dependence of proteasome activation in cells” value in assay [2] (0.5 or 1.0 μM, four or 24 h) is “substantially stronger after 4 h exposure than after 24 h”. In addition, the spontaneous activity entry in assay [3] is “increased spontaneous activity”.

Regarding `NCCCCC(N)C(=O)NC(CCCCN)C(=O)NC(CCCCN)C(=O)Nc1cc(NC(=O)C(CCCCN)NC(=O)C(CCCCN)NC(=O)C(N)CCCCN)cc(C(=O)NC(CCCCN)C(=O)NC(CCCCN)C(=O)NC(CCCCN)C(=O)O)c1` (stereo not shown) [(8)], the “proteasome activity in flies” value in assay [1] is given as “enhance proteasome activity when fed to flies”. In addition, in assay [2], the “proteasome ChT-L activity in lysates from treated cells vs control lysates” value is reported as “significantly higher than activity in control lysates”. Besides, the spontaneous activity result in assay [3] is recorded as “increased spontaneous activity”.
